# Experiments:
# [1] = system: SK-MEL-28 human melanoma cells; assay: In vitro antiproliferative activity, MTT, 72 h continuous treatment (no-washout); assay type: cell-based
# Description: (§1) U87MG human malignant glioma, SK-MEL-28 human melanoma, SK-OV-3 human ovarian cancer, and A549 human lung cancer cell lines were purchased from ATCC. The cells were cultured in Dulbecco’s Modified Eagle’s Medium (DMEM; Biosera, Nuaille, France), supplemented with 10% heat-inactivated Fetal Bovine Serum (FBS; Biosera), and with 1% Penicillin/Streptomycin (Biosera). Cells were cultured in sterile T75 flasks with ventilation cap (Sarstedt, Nümbrecht, Germany) at 37 °C in a humidified atmosphere with 5% CO2 in ESCO CelCulture Incubator (ESCO, Friedberg, Germany). Manipulations with the cells were performed in biosafety cabinet (laminar) ESCO Sentinel Gold class II model AC2-4E8 (ESCO).
# (§2) After standard trypsinization and harvesting cells by trypsin (Biosera), ethylenediaminetetraacetic acid (EDTA; Biosera) and PBS solution, 6×10^3 cells per well were seeded in serum containing (10%) growth medium to 96-well plates with flat bottom (Eppendorf, Hamburg, Germany), in a 100 μL volume per well, and incubated at 37°C.
# (§3) […] The control wells were treated only with serum free medium (5% serum final).
# (§4) For the evaluation of the in vitro antiproliferative activity of compounds, the cell viability was determined by MTT assay (3-(4,5-dimethylthiazol-2-yl)-2,5-diphenyl-tetrazolium bromide) obtained from Duchefa Biochemie (Haarlem, Netherlands).
# (§5) 22 µL of MTT solution (5 mg/mL in PBS, 0.5 mg/mL final) was added to each well and after 2 h incubation at 37°C, the supernatant was removed. […] Average background absorbance (DMSO-Ethanol) was subtracted from absorbance values of control and treated wells, and cell viability was determined relative to untreated (control) wells where cell viability was arbitrarily set to 100%. […] The experiments were done in triplicate and each experiment was repeated three times.
# [2] = system: U87MG human malignant glioma cells; assay: as above; assay type: cell-based
# Description: as §1, §2, §3, §4, §5
# [3] = Enzymatic cleavage assay with lysosomal homogenate; assay type: in vitro ADME; details: rat liver lysosomal homogenate, conjugate:lysosomal protein 1:10 (w/w), 0.2 M NaOAc pH 5.05, 37 °C, UPLC-HRMS
# Description: The enzymatically cleavage test was performed by incubating the conjugate 2 with rat liver lysosomal homogenate and analyzed by LC–MS. In particular, the conjugate 2 (2.35 μg/μL in DMSO, 5 μL) was diluted with 0.2 M NaOAc solution (pH 5.05, 495 μL) to 0.024 μg/μL. The lysosomal homogenate was prepared from rat liver ([Gomena et al., 2023]), and contained proteins in 71.76 μg/μL concentration. 8.6 μL of this lysosomal homogenate was diluted with 66.4 μL 0.2 M NaOAc solution (pH 5.05), to have a protein concentration of 8.27 μg/μL. To start the assay, 15 μL lysosome homogenate (8.27 μg/μL) was added to 500 μL conjugate solution (0.025 μg/μL), to have a conjugate: lysosomal protein = 1:10 (w/w) ratio. Furthermore, a control reaction mixture was prepared, containing the conjugate (2.35 μg/μL in DMSO, 5 μL) and 510 μL of 0.2 M NaOAc solution (pH 5.05). The samples were stirred at 300 rpm, 37°C and 50 µL aliquots were taken out at 0 min, 15 min, 30 min, 1 h, 2 h, 6 h, 24 h, and 72 h. The enzymatic activity was quenched by adding 5 μL formic acid (FA) to the samples. After this procedure, samples were frozen immediately at −25°C. Control samples were collected at 0 min, 1 h, 6 h, 24 h and 72 h. The composition of the samples was determined by HPLC-MS. […] LC-MS data were analyzed by XcaliburTM software (Thermo Fisher Scientific).
# [4] = system: A549 human lung cancer cells; assay: In vitro antiproliferative activity, MTT, 72 h continuous treatment (no-washout); assay type: cell-based
# Description: as §1, §2
# (§6) In the wash out experiment, cells were incubated with the compounds (5% serum final) for 30 min, then they were washed out, and additionally incubated in growth medium (5% serum final) up to 72 h. The control wells were treated only with serum free medium (5% serum final).
# as §4, §5
# [5] = system: SK-OV-3 human ovarian cancer cells; assay: as above; assay type: cell-based
# Description: as §1, §2, §6, §4, §5
# [6] = MTT, 72 h continuous treatment, no washout, 5% serum final, triplicate, repeated three times
# [7] = relative potency = ratio of IC50 of 2 vs MMAE, 72 h no washout
structure (smiles),measurement,setting,value
"CC[C@H](C)[C@@H]([C@@H](CC(=O)N1CCC[C@H]1[C@H](OC)[C@@H](C)C(=O)N[C@H](C)[C@@H](O)c1ccccc1)OC)N(C)C(=O)[C@@H](NC(=O)[C@H](C(C)C)N(C)C(=O)OCc1ccc(NC(=O)CNC(=O)[C@H](CC(C)C)NC(=O)[C@@H]2CCCN2C(=O)CNC(=O)CCc2cn(CCOCCOCCOCCOCC(=O)NCc3ccc(CN4C(=O)[C@H]5CC(=O)N[C@H](C(=O)O)CC(=O)NCC(=O)N[C@@H](CCCNC(=N)N)C(=O)NC[C@H]4C(=O)N5)cc3)nn2)cc1)C(C)C [compound 2, cyclo[DKP-isoDGR]-PEG4-GPLG-PABC-MMAE]",IC50,[1]; [6],70.4 ± 7.1 nM
same,RP [SMDC (2)/MMAE] SK-MEL-28,[1]; [7],29.49
same,IC50,[2]; [6],7.5 ± 0.9 nM
same,RP [SMDC (2)/MMAE] U87MG,[2]; [7],33.30
same,cleavage of the conjugate in the presence of lysosomal enzymes,[3],rapidly cleaved
same,incubation time after which released free MMAE is detectable,[3],≤ 15 min
same,IC50,"[4]; MTT, 72 h continuous treatment, no washout, 5% serum final, αVβ3 low expressing line, triplicate, repeated three times",20.8 ± 1.8 nM
same,RP [SMDC (2)/MMAE] A549,[4]; [7],302.32
same,IC50,[5]; [6],3.7 ± 0.3 nM
same,RP [SMDC (2)/MMAE] SK-OV-3,[5]; [7],120.52

# Source: paper PMC10363981, “Optimizing the enzymatic release of MMAE from isoDGR-based small molecule drug conjugate by incorporation of a GPLG-PABC enzymatically cleavable linker” (Frontiers in Pharmacology, 2023)
